pIC50: −log10 of the molar value.
Assays:
PDGFRα = target: T1, PDGFRα (Homo sapiens, UniProt P16234); test: Caliper biochemical assay, PDGFRα; conditions: Table 6
T1 construct: purchased Millipore 14-467 (lot 26321_ACTI)
Procedure: (§1) Enzyme, substrate, and cofactors (ATP and Mn^2+) are combined in a well of a microtiter plate and incubated for 3 hours at 25° C. At the end of the incubation, the reaction is quenched by the addition of an EDTA-containing buffer. Substrate and product are separated electrophoretically using the microfluidic-based LabChip 3000 Drug Discovery System from Caliper Life Sciences* and quantitated by fluorescence intensity.
(§2) The substrate used in the CSF-1R and PDGFRα assay is FAM-[…]-CONH2 (FAM is carboxyfluorescein). Peptide should be >95% purity. The substrate for the KIT assay is FAM-[…]-NH2.
(§3) • 1. To a well of a 384-well plate add 5 μL of 2× enzyme buffer (or control) • 2. Add 100 nL of 100× compound. • 3. Add 5 μL of 2× substrate buffer. • 4. Incubate plate at 25° C. for 3 hours. • 5. Add 10 uL of […]. • 6. Read plate LabChip 3000 Drug Discovery System
(§4) • 3 hours at 25° C. where 100% Inhibitor: No enzyme.

wtKIT [1] = target: T2, wtKIT (Homo sapiens, UniProt P10721); test: Caliper biochemical assay, wtKIT; conditions: Table 6, read-out: KIT Biochemical IC50 avg
T2 construct: 1888289AM in the reaction mixtures
T2 sequence (P10721 26-976): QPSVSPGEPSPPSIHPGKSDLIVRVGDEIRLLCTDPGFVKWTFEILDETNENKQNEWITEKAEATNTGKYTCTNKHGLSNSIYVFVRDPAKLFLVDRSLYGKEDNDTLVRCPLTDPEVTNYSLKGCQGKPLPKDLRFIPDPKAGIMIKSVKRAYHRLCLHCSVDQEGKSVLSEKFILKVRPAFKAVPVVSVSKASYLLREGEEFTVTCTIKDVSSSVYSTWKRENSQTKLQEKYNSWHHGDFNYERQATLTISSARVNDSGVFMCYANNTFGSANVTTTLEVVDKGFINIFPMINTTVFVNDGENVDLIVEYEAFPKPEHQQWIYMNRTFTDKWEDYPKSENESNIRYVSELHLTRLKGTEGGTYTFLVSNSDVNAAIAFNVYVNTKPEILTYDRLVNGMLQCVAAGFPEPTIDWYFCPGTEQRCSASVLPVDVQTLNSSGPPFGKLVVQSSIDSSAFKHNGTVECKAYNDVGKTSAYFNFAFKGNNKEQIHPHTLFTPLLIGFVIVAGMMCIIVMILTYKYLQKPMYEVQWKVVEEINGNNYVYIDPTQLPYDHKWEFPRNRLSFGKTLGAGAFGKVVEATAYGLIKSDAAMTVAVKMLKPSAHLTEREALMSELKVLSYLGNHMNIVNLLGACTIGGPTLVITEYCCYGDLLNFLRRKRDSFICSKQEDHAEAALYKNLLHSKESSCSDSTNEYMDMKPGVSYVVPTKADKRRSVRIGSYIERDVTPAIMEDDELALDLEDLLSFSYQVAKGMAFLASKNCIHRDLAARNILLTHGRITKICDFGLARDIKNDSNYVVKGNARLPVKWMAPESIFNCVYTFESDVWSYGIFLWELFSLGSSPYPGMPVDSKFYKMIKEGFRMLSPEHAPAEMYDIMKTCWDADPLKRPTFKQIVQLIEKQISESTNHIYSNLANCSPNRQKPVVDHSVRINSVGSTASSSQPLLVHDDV
Procedure: as §1, §2, §3, §4
• 100 mM HEPES, pH 7.5 0.1% BSA • 0.01% Triton X-100 • 1 mM DTT • 10 mM MnCl2 • 10 μM Sodium Orthovanadate • 10 μM Beta-Glycerophosphate • 400 μM ATP • 1% DMSO (from compound) • 1 μM FAM-[…]-CONH2 5.0 nM wtKIT Enzyme (1888289AM)* • *Specific activity may vary from lot to lot. Enzyme concentration may need to be adjusted to yield 10-20% conversion of substrate to product.

CSF-1R = target: T3, CSF-1R (Homo sapiens, UniProt P07333); test: Caliper biochemical assay, CSF-1R; conditions: Table 6
T3 construct: purchased Invitrogen PV3249 (lot 662393N)
T3 sequence (P07333 20-972): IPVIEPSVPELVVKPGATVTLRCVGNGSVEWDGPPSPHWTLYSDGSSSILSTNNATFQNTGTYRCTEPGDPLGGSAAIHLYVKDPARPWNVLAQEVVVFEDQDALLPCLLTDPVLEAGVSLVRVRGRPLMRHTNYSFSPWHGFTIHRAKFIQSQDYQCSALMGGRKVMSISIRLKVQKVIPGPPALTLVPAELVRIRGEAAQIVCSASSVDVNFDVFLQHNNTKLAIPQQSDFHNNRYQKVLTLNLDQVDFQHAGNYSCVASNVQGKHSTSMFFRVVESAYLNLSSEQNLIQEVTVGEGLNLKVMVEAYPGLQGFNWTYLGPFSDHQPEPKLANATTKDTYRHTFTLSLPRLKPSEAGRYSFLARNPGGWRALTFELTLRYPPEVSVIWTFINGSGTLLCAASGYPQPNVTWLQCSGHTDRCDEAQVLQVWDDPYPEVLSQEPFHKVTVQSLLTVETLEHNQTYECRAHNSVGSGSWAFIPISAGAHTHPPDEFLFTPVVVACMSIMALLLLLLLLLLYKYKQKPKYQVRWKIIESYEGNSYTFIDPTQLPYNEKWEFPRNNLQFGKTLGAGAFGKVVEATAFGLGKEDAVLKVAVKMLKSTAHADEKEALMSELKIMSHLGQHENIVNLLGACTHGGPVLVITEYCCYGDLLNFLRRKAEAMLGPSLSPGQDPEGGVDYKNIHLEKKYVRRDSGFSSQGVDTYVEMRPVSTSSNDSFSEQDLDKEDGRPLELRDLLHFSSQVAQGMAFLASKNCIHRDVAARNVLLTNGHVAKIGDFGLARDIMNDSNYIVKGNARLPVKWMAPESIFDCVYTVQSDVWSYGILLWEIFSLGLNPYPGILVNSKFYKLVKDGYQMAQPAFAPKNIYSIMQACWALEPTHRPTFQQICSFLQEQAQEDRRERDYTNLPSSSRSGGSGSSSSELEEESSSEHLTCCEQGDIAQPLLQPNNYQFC
Procedure: as §1, §2, §3, §4

Kinetic solubility assay = assay type: physicochemical; conditions: kinetic solubility, 50 mM PB (pH 7.4), shaken 24 hours at RT
In short: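 Test compounds from 10 mM DMSO stock were diluted in 50 mM phosphate buffer, pH 7.4, and shaken for 24 h at RT. After PTFE filtration and centrifugation, filtrate concentration was quantified by UPLC-UV/HPLC-UV against a standard curve.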

[2] = target: T4, BCRP (BCRP-MDCKII monolayer) (Homo sapiens, UniProt Q9UNQ0); test: MDCKII-BCRP bidirectional transport assay; assay type: in vitro ADME; conditions: for MDCK-BCRP: Papp A-B: apical to basolateral
T4 construct: host or cells: MDCKII (canine kidney) cells
T4 sequence (Q9UNQ0 1-655): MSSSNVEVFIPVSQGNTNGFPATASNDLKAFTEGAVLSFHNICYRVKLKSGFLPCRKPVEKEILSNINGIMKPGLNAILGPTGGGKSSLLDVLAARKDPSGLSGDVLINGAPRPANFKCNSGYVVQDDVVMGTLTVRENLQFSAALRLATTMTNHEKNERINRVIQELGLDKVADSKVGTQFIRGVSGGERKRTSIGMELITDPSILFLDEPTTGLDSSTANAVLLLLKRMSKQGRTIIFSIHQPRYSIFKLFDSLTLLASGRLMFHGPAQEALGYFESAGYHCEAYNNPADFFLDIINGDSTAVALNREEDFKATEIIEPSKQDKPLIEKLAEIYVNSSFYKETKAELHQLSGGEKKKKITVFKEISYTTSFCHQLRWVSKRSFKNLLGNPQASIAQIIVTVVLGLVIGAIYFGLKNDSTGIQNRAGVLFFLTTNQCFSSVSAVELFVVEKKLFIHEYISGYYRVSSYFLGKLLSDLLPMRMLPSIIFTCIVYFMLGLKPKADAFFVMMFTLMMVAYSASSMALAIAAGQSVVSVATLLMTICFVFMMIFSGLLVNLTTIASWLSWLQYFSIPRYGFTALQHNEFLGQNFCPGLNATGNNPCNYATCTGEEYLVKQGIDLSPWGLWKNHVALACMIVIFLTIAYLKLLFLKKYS
Procedure: Exemplary compounds were tested for cell permeability in Caco-2, MDCKII-MDR1 and MDCKII-BCRP cell lines with efflux transporter engagement inferred from the efflux ratios determined. Procedures and results are described below. […] This feature of certain compounds is in part due to efflux transporter engagement. See, for instance, exemplary such compounds included in data tables below.
The reference compound Teriflunomide and test compounds are tested in the bidirectional assay. Test compound and reference compounds incubations were tested in duplicates.
The transport assay can be performed between days 12 to day 15 using ready to use PreadyPort™ BCRP-MDCKII monolayer in 96 well plate.
The medium was aspirated from the apical and basal compartments and 75 and 235 μL assay buffer was added to each of the 96 wells of apical and basal compartments of the PreadyPort™ plate.
The plates were pre-incubated for 15 min at 37° C. with 5% CO2 in humidified atmosphere. After preincubation the assay buffer was removed from the apical and basal inserts of the plate.
In apical to basolateral (A→B) transport, 75 μL of test or reference compound working solution to apical inserts and 235 μL of blank assay buffer were added to the corresponding basal compartments.
In basolateral to apical transport, 235 μL of test or reference compound working solution to the basal compartments and 75 μL of blank assay buffer solution were added to corresponding apical inserts.
The sandwich plate was incubated for 120 min in incubator at 5% CO2 and 37° C.
After incubation, 60 μL was transferred from receiver and donor compartments to collection plate.
For donor and C0 samples 20-fold dilution was accomplished by mixing 60 μL of collected sample with 1140 μL of transport buffer and from that solution aliquot 60 μL transfer Both receiver and donor samples were processed by adding […] of acetonitrile containing internal standard (60 μL of sample+240 μL of acetonitrile containing glyburide as internal standard, 125 ng/mL) and vortexing the samples. The compound concentration was measured in all samples using respective calibration standards by LC-MS/MS.
Calculate the Papp and recovery using the given formula:
[formula] [formula] • Where: dQ/dt=Permeability rate in μM/see • C0=Initial concentration in μM • A=Membrane surface area (0.33 cm^2) • V=Volume of receiver chamber • Cend, a=concentration in acceptor well at end of incubation • Cend, d=concentration in donor well at end of incubation • CHBSS=loading concentration measured in HBSS

wtKIT [3] = target: T2, wtKIT; test: HTRF biochemical assay, wtKIT (phosphorylation of a peptide substrate); conditions: Table 4
In short: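 wtKIT (5.0 nM) phosphorylating 1 µM FAM-labelled peptide with 400 µM ATP and 10 mM MnCl2 in 100 mM HEPES pH 7.5, 1% DMSO, 3 h at 25 °C. EDTA quench; phosphopeptide detected with anti-phosphotyrosine antibody by HTRF. Enzyme titrated for 10-20% substrate conversion.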

T1 sequence (P16234 24-1089): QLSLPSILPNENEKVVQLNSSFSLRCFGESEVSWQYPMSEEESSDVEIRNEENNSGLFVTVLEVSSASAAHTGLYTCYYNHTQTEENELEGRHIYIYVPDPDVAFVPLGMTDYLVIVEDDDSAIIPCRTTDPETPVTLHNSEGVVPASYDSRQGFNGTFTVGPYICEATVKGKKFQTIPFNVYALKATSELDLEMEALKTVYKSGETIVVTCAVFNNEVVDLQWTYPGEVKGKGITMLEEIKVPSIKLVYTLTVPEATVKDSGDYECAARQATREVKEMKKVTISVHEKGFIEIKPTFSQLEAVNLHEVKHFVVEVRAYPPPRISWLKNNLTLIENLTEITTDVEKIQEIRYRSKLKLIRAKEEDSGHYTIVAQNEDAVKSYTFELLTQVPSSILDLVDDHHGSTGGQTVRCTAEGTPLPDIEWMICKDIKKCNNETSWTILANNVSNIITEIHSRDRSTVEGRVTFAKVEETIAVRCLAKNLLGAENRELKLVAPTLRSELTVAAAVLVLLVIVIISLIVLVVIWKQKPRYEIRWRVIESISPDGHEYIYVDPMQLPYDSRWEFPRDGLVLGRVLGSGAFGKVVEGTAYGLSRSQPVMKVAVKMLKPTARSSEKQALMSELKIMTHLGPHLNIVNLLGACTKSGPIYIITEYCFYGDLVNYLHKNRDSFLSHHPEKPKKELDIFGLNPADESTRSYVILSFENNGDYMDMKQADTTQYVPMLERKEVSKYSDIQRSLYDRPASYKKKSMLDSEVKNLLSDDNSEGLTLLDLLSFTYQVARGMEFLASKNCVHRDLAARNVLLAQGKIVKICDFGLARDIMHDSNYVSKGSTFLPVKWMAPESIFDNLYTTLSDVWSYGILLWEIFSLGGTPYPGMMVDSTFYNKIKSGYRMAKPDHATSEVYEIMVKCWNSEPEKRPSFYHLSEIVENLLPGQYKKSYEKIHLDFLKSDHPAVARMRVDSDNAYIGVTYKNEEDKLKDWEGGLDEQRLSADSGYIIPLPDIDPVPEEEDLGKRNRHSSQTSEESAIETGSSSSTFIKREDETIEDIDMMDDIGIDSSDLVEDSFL

| SMILES | pIC50 (PDGFRα) | pIC50 (wtKIT [1]) | pIC50 (CSF-1R) | Solubility (μM) (Kinetic solubility assay) | MDCK-BCRP: Efflux Ratio [2] | MDCK-BCRP: Papp A-B [2] | pIC50 (wtKIT [3]) |
| --- | --- | --- | --- | --- | --- | --- | --- |
| COC(=O)N1CC(c2nc(-c3ccc(C)c(NC(=O)c4cnc5cc(C(F)F)ccn45)c3)no2)C1 [Compound I-135] | 4.52 to 5.30 | ≥ 7.30 | 6.30 to 7.30 | **** (a solubility less than or equal to 2 μM) |  |  |  |
| Cc1ccc(-c2noc([C@@H]3CCN3CC(F)(F)F)n2)cc1NC(=O)c1cnc2ccccn12 (racemic) [Compound I-178] | 6.30 to 7.30 | ≥ 7.30 | ≥ 7.30 | **** (a solubility less than or equal to 2 μM) |  |  |  |
| Cc1ccc(-c2noc([C@H]3C[C@@H]3F)n2)cc1NC(=O)c1cnc2cc(N3CCCCC3)ccn12 [Compound I-305] | 6.30 to 7.30 | ≥ 7.30 | ≥ 7.30 | **** (a solubility less than or equal to 2 μM) |  |  |  |
| Cc1ccc(-c2noc(C3CC(S(=O)(=O)N(C)C)C3)n2)cc1NC(=O)c1cnc2ccccn12 (stereo not shown) [Compound I-211] |  | ≥ 7.30 |  | *** (a solubility greater than 2 μM and less than or equal to 10 μM) | 14.1 | 1.91 10^−6 cm/s | 6.30 to 7.30 |
| COC(=O)N1CC(c2nc(-c3ccc(C)c(NC(=O)c4cnc5ccc(OC[C@H](C)O)cn45)c3)no2)C1 [Compound I-246] |  | ≥ 7.30 |  | **** (a solubility less than or equal to 2 μM) | 16.9 | 1.81 10^−6 cm/s | 6.30 to 7.30 |
| Cc1ccc(-c2noc(C3CCCCO3)n2)cc1NC(=O)c1cnc2ccccn12 (racemic) [Compound I-397] |  | ≥ 7.30 |  | *** (a solubility greater than 2 μM and less than or equal to 10 μM) | 2.83 | 8.04 10^−6 cm/s |  |
| Cc1ccc(-c2noc([C@H]3C[C@@H]3F)n2)cc1NC(=O)c1cnc2cc(Nc3c(C)cccc3C)ccn12 [Compound I-293] |  | 6.30 to 7.30 |  | *** (a solubility greater than 2 μM and less than or equal to 10 μM) | 4.55 | 0.02 10^−6 cm/s |  |
| COC1(OC)CC(c2nc(-c3ccc(C)c(NC(=O)c4cnc5ccccn45)c3)no2)C1 [Compound I-346] |  | ≥ 7.30 |  | *** (a solubility greater than 2 μM and less than or equal to 10 μM) | 1.33 | 40.1 10^−6 cm/s |  |
| Cc1ccc(-c2noc(C3CN(C(N)=O)C3)n2)cc1NC(=O)c1cnc2ccccn12 [Compound I-268] |  | 6.30 to 7.30 |  | * (a solubility greater than 50 μM) | 11.6 | 0.31 10^−6 cm/s |  |
| Cc1ccc(-c2noc([C@H]3CCN(C(=O)OC(C)(C)C)C3)n2)cc1NC(=O)c1cnc2ccccn12 [Compound I-398] |  | 6.30 to 7.30 |  | *** (a solubility greater than 2 μM and less than or equal to 10 μM) | 1.33 | 20.3 10^−6 cm/s |  |
| COCC1(c2nc(-c3ccc(C)c(NC(=O)c4cnc5ccccn45)c3)no2)CC(F)(F)C1 [Compound I-378] |  | ≥ 7.30 |  | **** (a solubility less than or equal to 2 μM) | 0.77 | 16 10^−6 cm/s |  |
| COC(=O)C1CC(c2nc(-c3ccc(C)c(NC(=O)c4cnc5ccccn45)c3)no2)C1 (stereo not shown) [Compound I-366] |  | ≥ 7.30 |  | **** (a solubility less than or equal to 2 μM) | 1.31 | 10.2 10^−6 cm/s |  |
| Cc1ccc(-c2noc(C3(C)CC(F)C3)n2)cc1NC(=O)c1cnc2ccccn12 (stereo not shown) [Compound I-386] |  | ≥ 7.30 |  | **** (a solubility less than or equal to 2 μM) | 1.56 | 11.4 10^−6 cm/s |  |
| CC(C)(C)OC(=O)N1CC(c2nc(-c3ccc(Br)c(NC(=O)c4cnc5ccccn45)c3)no2)C1 [Compound I-332] |  | 6.30 to 7.30 |  | **** (a solubility less than or equal to 2 μM) | 1.75 | 2.63 10^−6 cm/s |  |

Reference: patent US20240254119A1 (THIRD HARMONIC BIO, INC., priority 2022, published 2024)
